Measurements reported in US11197859B2 (AUTIFONY THERAPEUTICS LIMITED, priority 2010, dated 2021).
Read-outs that look alike come from different tables or passages of the source.

Assay: Blood concentrations in satellite animals of the electroshock seizure study
Type: in vivo
Conditions: CD, whole blood, po, rat, 2 hours after dosing
Experimental: Testing involved determining the threshold for tonic hindlimb extensor seizures using a Hugo Sachs Electronik stimulator which delivers a constant current of 0.3 second duration, 50 Hz, sinewave form, fully adjustable between 1 and 300 mA. Stimuli were delivered via corneal electrodes (Stean T O, Atkins A R, Heidbreder C A, Quinn L P, Trail B K, Upton N. (2005) Br J Pharmacol. 144(5):628-35). Seizure threshold was determined using the ‘up and down’ method of Kimball et al. (1957)(Kimball A W, Burnett W T Jr, Doherty D G. (1957) Radiat Res. 7(1):1-12). The first animal tested in each group was stimulated with a current that might be expected to be close to the threshold for induction of a seizure. If a tonic seizure was not induced, then the next animal in the group received a stimulus 5 mA higher. If a tonic seizure was induced, then the next animal received a stimulus 5 mA lower. This is repeated for all animals within the control (vehicle) group. In the case of groups treated with a test compound steps of 5 to 10 mA were used. At the end of the study, blood samples were taken for analysis of the drug concentrations in this compartment (n=4/group).
All doses were calculated as base. Sodium valproate was suspended in Methocell 1% (w/v) and dosed via the oral (p.o.) route at 5 mL/kg 1 hour before test. Reference Example RE1 was dissolved in DMSO and then suspended in Methocell 1% (w/v) to a final DMSO concentration of 5% (v/v). Reference Example RE1 was then dosed p.o. at 5 mL/kg 2 hours before test.
Blood concentrations of Reference Example RE1 measured in satellite animals 2 hours after dosing were 5.3 and 9.1 μg/mL following the doses of 30 and 60 mg/kg p.o., respectively. These concentrations are equivalent to unbound concentrations in blood of 1.3 and 2.2 μM, respectively, and thus are consistent with concentrations of Reference Example RE1 that produce a significant increase in Kv3-mediated currents observed in the in vitro recombinant human Kv3 electrophysiology assay, described above.

CC[C@H]1NC(=O)N(c2ccc(Oc3ccc(C)c(OC)c3)nc2)C1=O [RE1, (5R)-5-ethyl-3-(6-{[4-methyl-3-(methyloxy)phenyl]oxy}-3-pyridinyl)-2,4-imidazolidinedione]
concentration at 2 h (30 mg/kg p.o., read-out: blood concentration): 5300 ng/mL | concentration at 2 h (30 mg/kg p.o., read-out: unbound concentration in blood): 1300 nM | concentration at 2 h (60 mg/kg p.o., read-out: blood concentration): 9100 ng/mL | concentration at 2 h (60 mg/kg p.o., read-out: unbound concentration in blood): 2200 nM
